Measured values taken from patent US10519211B2, “Compounds as peptidic GLP1/glucagon/GIP receptor agonists” (SANOFI, priority 2016, dated 2019).
Numbered stars: 1 amine (or outer) side, 2 acyl side, 3 side chain; on linkers, the order of the positions; unused ones are H or OH. Square brackets hold non-standard residues; d marks the D form. Side chains are listed from the residue outwards. Peptide text beside a SMILES is read from it. * marks the point of attachment. γGlu = O=C(O)[C@H](CCC(=O)[*:2])N[*:1]; Palmitoyl = CCCCCCCCCCCCCCCC(=O)*; Aib = CC(C)(N)C(=O)O

System: female, diabetic db/db mice
Assay: Acute effects after subcutaneous treatment on blood glucose in non-fasting diabetic db/db mice
Format: in vivo, mouse
Conditions: for Blood glucose AUC compared to the Diabetic-Vehicle group: 24 h; for Plasma glucose area under the curve (mmol/L in 24 h): once 30 μg/kg s.c., mean ± SEM
Procedure: Female healthy, lean BKS.Cg-(lean)/OlaHsd and diabetes-prone, obese BKS.Cg-+Lepr^db/+Lepr^db/OlaHsd mice were ordered group housed from Envigo RMS Inc., shipped group housed and remained group housed in shoebox caging with wood chip bedding until day 15 of the predose phase. At the study start mice were approximately 12 weeks old.
Mice were housed under vivarium conditions including a 12 h light/dark cycle (light phase 04:00 AM-4:00 PM), room temperatures between 23-26° C. and a relative humidity between 30-70%. All animals had free access to water and Purina Fomulab Diet 5008.
On predose day 9 blood glucose and body mass (approximately between 08:00-10:00 AM) as well as HbA1c measurements were performed. On day 15 of the predose phase animals were assigned to treatment groups (n=8) and to new cages to match mean HbA1c and body masses between all db/db groups. An age-matched lean group was included in the study as a healthy, lean reference.
Prior to day 1 of the dosing phase, the test article was diluted with Phosphate Buffered Saline (PBS, Gibco, without CaCl2 and MgCl2) to a concentration of 1 mg/mL and aliquots of this stock solution were stored at approximately −60° C. On day 1 of the dosing phase the stock aliquot was thawed and the injected test article solution was prepared fresh by diluting it with PBS to achieve the desired concentration.
On Day 1 of the dosing phase db/db mice were either treated once with a s.c. injection of PBS-vehicle or 30 μg/kg test article. The lean reference group was treated once with a s.c. injection of PBS-vehicle. The dosing was initiated and completed between 08:00 and 10:00 AM. The applied volume was 5 ml/kg and the dose was adjusted to the most recent body mass recording of each individual.
Animals had unlimited access to water and feed during the experiment. On day 1 of the dosing phase approximately 5 μL of blood were collected via tail clips at minute −30 and 0 prior to any other inlife activities. At minute 0 mice received a s.c. dose of either PBS-vehicle or 30 μg/kg test article. Further blood samples were harvested at hour 0.25, 0.5, 1, 1.5, 2, 3, 4, 6, 8, and 24 post-dose. Glucose measurements were performed in whole blood using AlphaTRAK glucometers. If the glucose concentrations of two measurements differed by more than 20 mg/dL a third value was recorded. The Area Under the Curve (AUC) for blood glucose was calculated via the trapezoid method and for the duration of the 24 post-dose hours.
Data are depicted as means±SEM. […] A One-Way ANOVA and Tukey Test were used for pairwise multiple comparisons of all groups (n=8/group, deviations from group size are indicated). […] Data from a Non-Diabetic-Vehicle group serve as a reference dataset for the normoglycemic, lean state.
Female, 12 weeks old, healthy, lean BKS.Cg-(lean)/OlaHsd or diabetes-prone, obese BKS.Cg-+Leprdb/+Leprdb/OlaHsd mice were treated once with a s.c. injection of PBS, 30 μg/kg SEQ ID NO: 6 or 30 μg/kg SEQ ID NO: 7. The dosing was initiated and completed between 08:00 and 10:00 AM. The applied volume was 5 ml/kg and the dose was adjusted to the most recent body mass recording of each individual. Diabetic db/db mice were HbA1c- and body mass-matched. The lean reference group was treated once with a s.c. injection of PBS-vehicle.
Animals had unlimited access to water and feed during the experiment. On day 1 of the dosing phase approximately 5 μL of blood were collected via tail clips at minute −30 and 0 prior to any other inlife activities. At minute 0 mice received a s.c. dose of either PBS-vehicle, 30 μg/kg SEQ ID NO: 6 or SEQ ID NO: 7. Further blood samples were harvested at minute 15, 30, 60, 90, 120, 150, 180, 240, 360, and 480 post-dose. Glucose measurements were performed in whole blood using AlphaTRAK glucometers. If the glucose concentrations of two measurements differed by more than 20 mg/dL a third value was recorded. […]

[1] = 30 μg/kg s.c. once, fed db/db mice
[2] = 30 μg/kg s.c. once, fed db/db mice, in words

SMILES: CCCCCCCCCCCCCCCC(=O)N[C@@H](CCC(=O)N[C@@H](CCC(=O)NCCCC[C@H](NC(=O)[C@H](CC(C)C)NC(=O)[C@H](CCCCN)NC(=O)[C@H](CO)NC(=O)[C@H](CC(C)C)NC(=O)[C@H](CC(=O)O)NC(=O)[C@H](CO)NC(=O)[C@@H](NC(=O)[C@H](Cc1ccccc1)NC(=O)[C@@H](NC(=O)CNC(=O)[C@H](CCC(N)=O)NC(=O)C(C)(C)NC(=O)[C@@H](N)Cc1c[nH]cn1)[C@@H](C)O)[C@@H](C)O)C(=O)N[C@@H](CCC(=O)O)C(=O)N[C@@H](CCCCN)C(=O)N[C@@H](CCC(N)=O)C(=O)N[C@@H](CCCNC(=N)N)C(=O)N[C@@H](CCC(N)=O)C(=O)NC(C)(C)C(=O)N[C@@H](CCC(=O)O)C(=O)N[C@@H](Cc1ccccc1)C(=O)N[C@H](C(=O)N[C@@H](CCC(=O)O)C(=O)N[C@@H](Cc1c[nH]c2ccccc12)C(=O)N[C@@H](CC(C)C)C(=O)N[C@@H](CCCCN)C(=O)N[C@@H](C)C(=O)N[C@H](C)C(=O)NCC(=O)N[C@@H](Cc1c[nH]cn1)C(=O)N1CCC[C@H]1C(=O)N[C@@H](CO)C(=O)NC(C)(C)C(=O)N[C@@H](CCCCN)C(=O)N1CCC[C@H]1C(=O)N1CCC[C@H]1C(=O)N1CCC[C@H]1C(=O)N[C@@H](CCCCN)C(N)=O)[C@@H](C)CC)C(=O)O)C(=O)O [SEQ ID NO: 13, H-Aib-Q-G-T-F-T-S-D-L-S-K-L-K[gGlu-gGlu-Palm]-E-K-Q-R-Q-Aib-E-F-I-E-W-L-K-A-dAla-G-H-P-S-Aib-K-P-P-P-K-NH2] (H-H[Aib]QGTFTSDLSKLK([γGlu-γGlu-Palmitoyl])EKQRQ[Aib]EFIEWLKA[dA]GHPS[Aib]KPPPK-NH2)
- Blood glucose AUC compared to the Diabetic-Vehicle group (30 μg/kg s.c. once, in words): statistically significant reduction in the blood glucose AUC
- Time post dose at which lowest blood glucose levels were reached [1]: approximately 8 hours
- Blood glucose profile following single treatment [2]: acute decrease in blood glucose concentrations
- Mean blood glucose concentrations twenty four hours post-dose [2]: close to baseline
- Plasma glucose area under the curve (mmol/L in 24 h) (Table 12, fed db/db mice): +458.34 ± 27.11 mmol/L in 24 h

SMILES: CCCCCCCCCCCCCCCC(=O)N[C@@H](CCC(=O)N[C@@H](CCC(=O)NCCCC[C@H](NC(=O)[C@H](CC(C)C)NC(=O)[C@H](CCCCN)NC(=O)[C@H](CO)NC(=O)[C@H](CC(C)C)NC(=O)[C@H](CC(=O)O)NC(=O)[C@H](CO)NC(=O)[C@@H](NC(=O)[C@H](Cc1ccccc1)NC(=O)[C@@H](NC(=O)CNC(=O)[C@H](CCC(N)=O)NC(=O)C(C)(C)NC(=O)[C@@H](N)Cc1c[nH]cn1)[C@@H](C)O)[C@@H](C)O)C(=O)N[C@@H](CCC(=O)O)C(=O)N[C@@H](CCCCN)C(=O)N[C@@H](CCC(N)=O)C(=O)N[C@@H](CCCNC(=N)N)C(=O)N[C@@H](CCC(N)=O)C(=O)NC(C)(C)C(=O)N[C@@H](CCC(=O)O)C(=O)N[C@@H](Cc1ccccc1)C(=O)N[C@H](C(=O)N[C@@H](CCC(=O)O)C(=O)N[C@@H](Cc1c[nH]c2ccccc12)C(=O)N[C@@H](CC(C)C)C(=O)N[C@@H](CCCCN)C(=O)N[C@@H](C)C(=O)NCC(=O)NCC(=O)N1CCC[C@H]1C(=O)N1CCC[C@H]1C(=O)N[C@@H](CO)C(=O)NC(C)(C)C(=O)N[C@@H](CCCCN)C(=O)N1CCC[C@H]1C(=O)N1CCC[C@H]1C(=O)N1CCC[C@H]1C(=O)N[C@@H](CCCCN)C(N)=O)[C@@H](C)CC)C(=O)O)C(=O)O [SEQ ID NO: 6, H-Aib-Q-G-T-F-T-S-D-L-S-K-L-K[gGlu-gGlu-Palm]-E-K-Q-R-Q-Aib-E-F-I-E-W-L-K-A-G-G-P-P-S-Aib-K-P-P-P-K-NH2]
- Blood glucose AUC compared to the Diabetic-Vehicle group (30 μg/kg s.c. once, in words): statistically significant reduction in the blood glucose AUC
- Time post dose at which lowest blood glucose levels were reached [1]: approximately 8 hours
- Blood glucose profile following single treatment [2]: acute decrease in blood glucose concentrations
- Plasma glucose area under the curve (mmol/L in 24 h) (Table 10, fed db/db mice): +430.70 ± 26.41 mmol/L in 24 h

SMILES: CCCCCCCCCCCCCCCC(=O)N[C@@H](CCC(=O)N[C@@H](CCC(=O)NCCCC[C@H](NC(=O)[C@H](CC(C)C)NC(=O)[C@H](CCCCN)NC(=O)[C@H](CO)NC(=O)[C@H](CC(C)C)NC(=O)[C@H](CC(=O)O)NC(=O)[C@H](CO)NC(=O)[C@@H](NC(=O)[C@H](Cc1ccccc1)NC(=O)[C@@H](NC(=O)CNC(=O)[C@H](CCC(N)=O)NC(=O)C(C)(C)NC(=O)[C@@H](N)Cc1c[nH]cn1)[C@@H](C)O)[C@@H](C)O)C(=O)N[C@@H](CCC(=O)O)C(=O)N[C@@H](CCCCN)C(=O)N[C@@H](CCC(N)=O)C(=O)N[C@@H](CCCNC(=N)N)C(=O)N[C@@H](CCC(N)=O)C(=O)NC(C)(C)C(=O)N[C@@H](CCC(=O)O)C(=O)N[C@@H](Cc1ccccc1)C(=O)N[C@H](C(=O)N[C@@H](CCC(=O)O)C(=O)N[C@@H](Cc1c[nH]c2ccccc12)C(=O)N[C@@H](CC(C)C)C(=O)N[C@@H](CCCCN)C(=O)N[C@@H](C)C(=O)N[C@H](C)C(=O)NCC(=O)N1CCC[C@H]1C(=O)N1CCC[C@H]1C(=O)N[C@@H](CO)C(=O)NC(C)(C)C(=O)N[C@@H](CCCCN)C(=O)N1CCC[C@H]1C(=O)N1CCC[C@H]1C(=O)N1CCC[C@H]1C(=O)N[C@@H](CCCCN)C(N)=O)[C@@H](C)CC)C(=O)O)C(=O)O [SEQ ID NO: 7, H-Aib-Q-G-T-F-T-S-D-L-S-K-L-K[gGlu-gGlu-Palm]-E-K-Q-R-Q-Aib-E-F-I-E-W-L-K-A-dAla-G-P-P-S-Aib-K-P-P-P-K-NH2] (H-H[Aib]QGTFTSDLSKLK([γGlu-γGlu-Palmitoyl])EKQRQ[Aib]EFIEWLKA[dA]GPPS[Aib]KPPPK-NH2)
- Blood glucose AUC compared to the Diabetic-Vehicle group (30 μg/kg s.c. once, in words): statistically significant reduction in the blood glucose AUC
- Time post dose at which lowest blood glucose levels were reached [1]: approximately 8 hours
- Blood glucose profile following single treatment [2]: acute decrease in blood glucose concentrations
- Plasma glucose area under the curve (mmol/L in 24 h) (Table 10, fed db/db mice): +461.54 ± 39.43 mmol/L in 24 h
